Results on ten compounds are retold here after ChEMBL document CHEMBL4680089, “Development of Allosteric Hydrazide-Containing Class I Histone Deacetylase Inhibitors for Use in Acute Myeloid Leukemia” (J Med Chem, 2016).

One series has as its target Histone deacetylase 3 (Homo sapiens, UniProt O15379). The series can be described thus: Allosteric inhibition of C-terminal His-tagged recombinant human HDAC3 expressed in Sf9 cells pre-incubated for 2 hrs before acetylated lysine-aminomethyl coumarin-BOC addition and measured after 2 hrs by fluorescence based assay.
The target in series [1] is T1, Class 1 histone deacetylase (Homo sapiens) (UniProt Q13547+O15379+Q92769+Q9BY41). As to conditions: time 24.0 hrs.
T1 sequence (O15379 whole entry, looked up): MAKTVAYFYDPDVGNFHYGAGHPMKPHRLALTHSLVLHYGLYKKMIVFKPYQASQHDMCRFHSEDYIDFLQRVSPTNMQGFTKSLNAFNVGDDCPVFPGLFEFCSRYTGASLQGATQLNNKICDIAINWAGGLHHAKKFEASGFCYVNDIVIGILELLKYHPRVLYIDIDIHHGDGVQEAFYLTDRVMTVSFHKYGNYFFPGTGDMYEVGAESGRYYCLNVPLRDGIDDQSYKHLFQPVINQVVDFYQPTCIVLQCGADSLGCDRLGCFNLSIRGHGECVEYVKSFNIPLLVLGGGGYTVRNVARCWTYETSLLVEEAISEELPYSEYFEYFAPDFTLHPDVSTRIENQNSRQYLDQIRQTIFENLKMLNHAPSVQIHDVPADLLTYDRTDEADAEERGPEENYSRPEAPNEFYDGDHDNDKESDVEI
T1 sequence (Q13547 whole entry, looked up): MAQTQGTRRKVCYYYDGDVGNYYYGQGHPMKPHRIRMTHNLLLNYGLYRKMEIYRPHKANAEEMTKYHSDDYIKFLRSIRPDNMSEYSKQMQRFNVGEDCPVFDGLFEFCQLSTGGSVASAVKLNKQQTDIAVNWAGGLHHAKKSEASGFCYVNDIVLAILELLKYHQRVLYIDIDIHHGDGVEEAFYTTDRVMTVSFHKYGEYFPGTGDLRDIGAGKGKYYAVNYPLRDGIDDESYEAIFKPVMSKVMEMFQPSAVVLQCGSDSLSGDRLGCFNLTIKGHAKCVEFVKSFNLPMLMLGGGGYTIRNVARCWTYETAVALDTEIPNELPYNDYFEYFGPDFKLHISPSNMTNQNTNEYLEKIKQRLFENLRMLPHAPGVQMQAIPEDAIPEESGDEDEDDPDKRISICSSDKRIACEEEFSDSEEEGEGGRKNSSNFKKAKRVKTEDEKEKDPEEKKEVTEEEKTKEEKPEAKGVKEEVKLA
T1 sequence (Q92769 whole entry, looked up): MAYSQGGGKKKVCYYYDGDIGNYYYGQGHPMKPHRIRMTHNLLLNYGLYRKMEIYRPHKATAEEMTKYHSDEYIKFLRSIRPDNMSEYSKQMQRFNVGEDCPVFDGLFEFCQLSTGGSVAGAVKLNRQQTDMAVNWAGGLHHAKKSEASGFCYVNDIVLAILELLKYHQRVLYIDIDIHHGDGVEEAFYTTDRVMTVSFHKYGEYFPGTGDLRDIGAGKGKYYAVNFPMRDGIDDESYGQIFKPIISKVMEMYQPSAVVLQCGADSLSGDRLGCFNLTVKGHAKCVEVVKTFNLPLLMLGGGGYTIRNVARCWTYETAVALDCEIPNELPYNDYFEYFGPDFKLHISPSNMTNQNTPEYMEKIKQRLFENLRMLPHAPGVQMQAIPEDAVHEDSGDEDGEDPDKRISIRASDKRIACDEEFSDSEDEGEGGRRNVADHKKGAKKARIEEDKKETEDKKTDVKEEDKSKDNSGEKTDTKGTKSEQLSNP
T1 sequence (Q9BY41 whole entry, looked up): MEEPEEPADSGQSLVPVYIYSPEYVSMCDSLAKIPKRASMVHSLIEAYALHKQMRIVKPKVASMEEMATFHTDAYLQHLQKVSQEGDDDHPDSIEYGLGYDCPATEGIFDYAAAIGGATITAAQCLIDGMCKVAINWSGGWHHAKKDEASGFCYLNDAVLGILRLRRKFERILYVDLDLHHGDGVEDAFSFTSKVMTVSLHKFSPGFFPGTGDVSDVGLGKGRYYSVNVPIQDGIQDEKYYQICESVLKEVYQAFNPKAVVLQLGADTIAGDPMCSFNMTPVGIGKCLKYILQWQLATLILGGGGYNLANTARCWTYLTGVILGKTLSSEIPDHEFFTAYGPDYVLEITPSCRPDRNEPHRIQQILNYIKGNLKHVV
Series [2] concerns the target T1, Class 1 histone deacetylase (Homo sapiens). As to conditions: time 24.0 hrs. The source holds these as a separate data set.
A short description of series [3]: Drug metabolism in human liver microsomes assessed as o-glucuronidated metabolite formation in absence of UDP glucuronic acid incubated for 12 hrs at 37 degC by electrospray ionization liquid chromatography mass spectrometry. It is filed as ADME, Microsome.
The nature of series [4]: Drug metabolism in human liver microsomes assessed as o-glucuronidated metabolite formation in presence of UDP glucuronic acid incubated for 12 hrs at 37 degC by electrospray ionization liquid chromatography mass spectrometry. Type of series: ADME, Microsome.
A further series concerns HEK293. The series is described as follows: Cytotoxicity against HEK293 cells assessed as reduction in cell viability incubated for 48 hrs by Cell-titer-blue cell viability assay. As to conditions: human, hek293, 48 h. Type of series: cell-based.
For series [5], the target named is T2, Protein deacetylase HDAC6 (Homo sapiens) (UniProt Q9UBN7).
T2 sequence (whole entry): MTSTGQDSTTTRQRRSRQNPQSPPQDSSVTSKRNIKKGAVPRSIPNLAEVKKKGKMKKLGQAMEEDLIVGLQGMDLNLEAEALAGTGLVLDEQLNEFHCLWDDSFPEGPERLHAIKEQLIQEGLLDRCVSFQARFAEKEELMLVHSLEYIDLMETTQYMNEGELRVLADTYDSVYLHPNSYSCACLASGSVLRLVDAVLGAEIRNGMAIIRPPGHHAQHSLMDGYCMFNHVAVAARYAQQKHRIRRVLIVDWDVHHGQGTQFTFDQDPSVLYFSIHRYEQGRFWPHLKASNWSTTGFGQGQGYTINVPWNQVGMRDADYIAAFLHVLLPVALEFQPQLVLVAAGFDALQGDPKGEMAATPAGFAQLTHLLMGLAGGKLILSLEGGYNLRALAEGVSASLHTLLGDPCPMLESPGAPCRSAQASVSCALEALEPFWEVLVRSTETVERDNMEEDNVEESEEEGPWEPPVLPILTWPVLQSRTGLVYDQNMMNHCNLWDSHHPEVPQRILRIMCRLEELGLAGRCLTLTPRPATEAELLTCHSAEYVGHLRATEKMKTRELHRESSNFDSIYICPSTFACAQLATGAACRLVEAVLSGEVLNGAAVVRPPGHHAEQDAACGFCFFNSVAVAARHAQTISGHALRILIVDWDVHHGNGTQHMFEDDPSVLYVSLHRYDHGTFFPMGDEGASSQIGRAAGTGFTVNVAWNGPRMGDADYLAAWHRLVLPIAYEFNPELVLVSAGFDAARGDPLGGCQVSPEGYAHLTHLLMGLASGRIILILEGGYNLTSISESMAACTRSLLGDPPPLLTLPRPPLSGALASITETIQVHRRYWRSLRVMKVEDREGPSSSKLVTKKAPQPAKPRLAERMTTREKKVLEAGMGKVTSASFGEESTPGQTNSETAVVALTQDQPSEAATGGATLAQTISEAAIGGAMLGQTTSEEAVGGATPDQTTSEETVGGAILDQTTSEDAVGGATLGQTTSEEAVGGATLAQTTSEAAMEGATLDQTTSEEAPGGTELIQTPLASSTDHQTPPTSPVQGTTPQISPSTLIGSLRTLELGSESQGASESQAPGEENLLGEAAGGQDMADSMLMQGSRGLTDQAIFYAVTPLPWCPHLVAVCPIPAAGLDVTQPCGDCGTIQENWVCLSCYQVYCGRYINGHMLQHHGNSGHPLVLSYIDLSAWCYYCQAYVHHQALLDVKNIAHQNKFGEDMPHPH
Particulars: MV4-11, dose 100.0 nM, time 24.0 hrs.

For the next series, the system named is MV4-11. The series can be described thus: cells. Type of series: functional, cell-based. Particulars: Homo sapiens, MV4-11, 48 h.
Series [6] in a line: Cytotoxicity against human PBMC assessed as reduction in cell viability at 10 nM incubated for 24 hrs by Cell-titer-blue cell viability assay. As to conditions: 0.01 µM.
Another series deals with RS4-11. The series is described as follows: Cytotoxicity against human RS4-11 cells assessed as reduction in cell viability incubated for 48 hrs by Cell-titer-blue cell viability assay. It is filed as functional, cell-based. Particulars: RS4-11, 48 h.
Series [7] can be described thus: Drug metabolism in human liver microsomes assessed as compound reduction in absence of UDP glucuronic acid incubated for 12 hrs at 37 degC by electrospray ionization liquid chromatography mass spectrometry. Type of series: ADME, Microsome.
A further series deals with K562. The series is described as follows: Cytotoxicity against human K562 cells assessed as reduction in cell viability incubated for 48 hrs by Cell-titer-blue cell viability assay. It is filed as functional, cell-based. As to conditions: K562, 48 h.
Another series concerns MOLM-14. The series can be described thus: Cytotoxicity against human MOLM-14 cells assessed as reduction in cell viability incubated for 48 hrs by Cell-titer-blue cell viability assay. It is filed as functional, cell-based. As to conditions: MOLM-14, 48 h.
A further series deals with HL-60. The series can be described thus: Cytotoxicity against human HL-60 cells assessed as reduction in cell viability incubated for 48 hrs by Cell-titer-blue cell viability assay. As to conditions: HL-60, 48 h. Type of series: functional, cell-based.
A short description of series [8]: Cytotoxicity against human PBMC assessed as reduction in cell viability incubated for 24 hrs by Cell-titer-blue cell viability assay relative to panobinostat.
For a further series, the system named is RPMI-8226. The series can be described thus: Cytotoxicity against human RPMI-8226 cells assessed as reduction in cell viability incubated for 48 hrs by Cell-titer-blue cell viability assay. Type of series: functional, cell-based. As to conditions: RPMI-8226, 48 h.
Where [9] appears, read: MV4-11, filed as negative allosteric modulator, dose 100.0 nM.

Molecules are shown by their SMILES. pEC50, pIC50: −log10 of the molar value. Active and inactive are the calls of the source. The calls are words filed in the database; no cut-off is given here.

Sequence of Histone deacetylase 3 (O15379 whole entry): as the sequence (O15379 whole entry, looked up) above
Description for MV4-11: Cytotoxicity against human MV4-11 cells assessed as reduction in cell viability incubated for 48 hrs by Cell-titer-blue cell viability assay

Regarding `CC(C)NNC(=O)c1ccc(CNC(=O)c2ccccc2)cc1`, at Histone deacetylase 3, the pIC50 is under 5.00.

Consider `C/C=C/CNNC(=O)c1ccc(CNC(=O)c2ccccc2)cc1`, for which the pIC50 at Histone deacetylase 3 is 5.81.

Take `CCCCNNC(=O)c1cccc2ccccc12`: the pIC50 on Histone deacetylase 3 was under 5.00.

Consider `CC/C=N/NC(=O)c1ccc(CNC(=O)c2ccccc2)cc1`, for which the inhibition entry in series [1] (MV4-11, dose 100.0 nM) was “inactive”; in [2] (MV4-11, dose 100.0 nM), “inactive”. Also, the pIC50 at Histone deacetylase 3 was under 5.00.

Take `CCCCNNC(=O)c1ccc(CNC(=O)c2ccccc2)cc1`: the Drug metabolism result in [3] and in series [4] was “Metabolite_Notdetected” each time. In the series with HEK293, the Activity entry is listed as “Non-Toxic”. For the same compound, the inhibition entry in series [5] was “inactive”. In addition, the inhibition result in series [1] (setting [9]) and in [2] (setting [9]) was “Active” in each case.

`Nc1ccccc1NC(=O)c1ccc(CNC(=O)OCc2cccnc2)cc1` [ENTINOSTAT] gave a negative-log EC50 (pEC50) with MV4-11 of over 7.52.

For the compound `Cc1[nH]c2ccccc2c1CCNCc1ccc(/C=C/C(=O)NO)cc1` [PANOBINOSTAT], the pEC50 in the series with MV4-11 was over 7.52. For the same compound, the Activity entry in series [6] was “Toxic”.

For `CCCNNC(=O)c1ccc(CNC(=O)/C=C/c2ccccc2)cc1`, the figures for the Drug metabolism entry in series [3], in series [4] and in series [7] were “Metabolite_Notdetected”, “Metabolite_Notdetected” and “Metabolite_Detected”, respectively. The pEC50 in the series on RS4-11 was 6.82; with K562, 5.67; in the series with MV4-11, 7.44; in the series with MOLM-14, 7.12; in the series with HL-60, under 5.00; in the series on RPMI-8226, under 5.00. In addition, the Activity entry (in series [8]; with HEK293) was “Non-Toxic” throughout. In [5], the inhibition entry is “inactive”. The inhibition result in [1] (setting [9]) and in series [2] (setting [9]) was “Active” each time.

Take `CCCNNC(=O)c1ccc(CNC(=O)c2ccccc2)cc1`: the Drug metabolism entry in [3] and in series [4] was “Metabolite_Notdetected” each time. Besides, the Activity entry (in [8]; in the series with HEK293) was “Non-Toxic” each time. In addition, the inhibition result in series [5] was “inactive”. Also, the inhibition result in [1] (setting [9]) and in series [2] (setting [9]) was “Active” throughout.

For the compound `O=C(CCCCCCC(=O)Nc1ccccc1)NO` [VORINOSTAT], the Drug metabolism result in series [3] is “Metabolite_Notdetected”; in series [4], “Metabolite_Detected”.
